This is an account of results in PubChem BioAssay AID2384 (Southern Research Specialized Biocontainment Screening …, 2010).

Molecules are shown by their SMILES. Values joined by “and” are separate entries in the source; they are usually repeats but may differ in a detail not shown here. Equal entries are not always repeated.

This assay concerns S. typhi GFP reporter counter-screen, fluorescence, 4 h. Kind of assay: S. typhi counter-screen signal inhibition – fluorescence, 4 h, counter-screen for PhoP regulon inhibitor project, dose response (AID 2384). In general terms: The purpose of a counterscreen is to sort out artefacts and off-target activity.
With `Cc1nc(N)c(Cc2ccc(Cl)cc2Cl)c(N)n1`, the concentration for half-maximal inhibition (IC50) (in general, the concentration at which inhibition is half-maximal) was 30.4 µM. As for `CN1CCN(c2ccc(NC(=O)c3ccc(-c4ccc(Br)cc4)o3)cc2)CC1`, the IC50 is 19.6 µM. To `Cc1ccc(C(=O)NNC(=S)NC(=O)COc2ccccc2)cc1` belongs 63.9 µM. As for `Cc1cc(C2N=C(N)Nc3nc4ccccc4n32)c(C)n1-c1ccccc1Cl` (stereo not drawn), the concentration for half-maximal inhibition (IC50) is 32.8 µM. For `O=[N+]([O-])c1cccc2c(N3CCCC3)ccnc12` the value was 32.8 µM; for `NC1=NC[C@H](c2ccccc2)N1CCCCC1CCCCC1`, 28.9 µM. In the case of `CCCCCCCCCCCCCCCC[n+]1ccc(/C=N/O)cc1`, the half-inhibitory concentration (IC50) was 36.9 µM. As to `O=C(N/N=C/c1cc(Br)cc(Br)c1O)c1ccncc1`, the half-inhibitory concentration (IC50) was 45.3 µM. To `CC(=O)Nc1ccc(S(=O)(=O)NNc2cccc(C)c2)cc1` belongs 27.5 µM; to `CN(C)CCCN1c2ccccc2Sc2ccc(Cl)cc21`, 34.3 µM and 31.8 µM. For `COc1ccc(/C=N/Nc2cc(C)nc3ccccc23)cc1` the value was 29.2 µM; for `CC1(C)N=C(N)NC(Nc2cccc(Br)c2)=N1`, 72.5 µM.

Turning to `CCCCCCCCCCOC(=O)Cn1c(COc2cccc(C)c2)[n+](C)c2ccccc21`, the concentration for half-maximal inhibition (IC50) is 9.7 µM. For the compound `NC1=NC[C@H](Cc2ccccc2)N1CCCCC1CCCCC1`, the IC50 was 19.4 µM. To `Clc1ccc(CN2CCc3c([nH]c4ccccc34)C2)cc1Cl` belongs 36.2 µM; to `C#CCOCCOCCOCCNc1nc(N2CCN(C(=O)CCCCCCCCCCNC(=O)[C@H]([C@@H](C)CC)n3cc(CCCCN=C(N)N)nn3)CC2)nc(N2CCN(C(=O)CCCCCCCCCCNC(=O)[C@H](CO)n3cc(CCCCCN)nn3)CC2)n1`, 35.2 µM. As for `COc1ccc(Nc2c3c(nc4ccccc24)CCC3)cc1`, the IC50 was 113 µM. For `NS(=O)(=O)c1ccc(CNc2ccc3ccccc3n2)cc1` the value was 145 µM. For `O=C(C[n+]1cc(Br)cc2ccccc21)c1ccc(Cl)cc1` the value was 32.7 µM; for `Cc1ccc(C(c2cc(Cl)c3cccnc3c2O)N2CCN(C)CC2)cc1` (stereo not drawn), 30.4 µM. For `C#CCOCCOCCOCCNc1nc(N2CCN(C(=O)[C@H]([C@@H](C)CC)n3cc([C@@H](N)CO)nn3)CC2)nc(N2CCN(C(=O)[C@H](Cc3cc4ccccc4[nH]3)n3cc([C@@H](N)Cc4ccc(O)cc4)nn3)CC2)n1` the value was 49.7 µM; for `Oc1ccc(CN2CCCc3ccccc32)c2cccnc12`, 57.2 µM. For the compound `COc1ccc(Nc2nc(NCC3CCCO3)c3ccccc3n2)c(OC)c1` (stereo not drawn), the half-inhibitory concentration (IC50) is 73.2 µM. For `O=C(NC(=S)NNC(=O)c1cccs1)c1ccc(Br)o1` the value was 60.2 µM; for `CN1CCN(C(c2ccc(Cl)cc2)c2cc(Cl)c3cccnc3c2O)CC1` (stereo not drawn), 19.7 µM; for `CCCCCCCCCCCCCCCC[N+](C)(C)C`, 19.3 µM. As to `Nc1cc2c3c(cccc3c1)C(=O)N(CCN1CCCC1)C2=O`, the IC50 was 129 µM.

As to `O=C(C[n+]1cc(Br)cc2ccccc21)c1ccc(F)cc1`, the IC50 was 75.7 µM.

Turning to `CC(NCC(O)COCCC12CC3CC(CC(C3)C1)C2)c1ccccc1` (stereo not drawn), the half-maximal inhibitory concentration (IC50) is 23.1 µM. Turning to `COc1cc(CNC2CCCC2)cc(Cl)c1OCc1ccccc1Cl`, the IC50 was 38 µM.

Turning to `COc1cc(/C=N/NC(=O)c2cncc(Br)c2)cc([N+](=O)[O-])c1O`, the IC50 is 19.1 µM.

For the compound `Oc1c(CN2CCCCC2)cc(Br)c2cccnc12`, the IC50 was 15.7 µM. For `Cc1cc([N+](=O)[O-])nn1CC(=O)N/N=C/c1ccccc1O` the value was 35.3 µM; for `CN1CCN(CCCN2c3ccccc3Sc3ccc(Cl)cc32)CC1`, 41.7 µM and 23.8 µM; for `NC(N)=N/N=C/c1ccc(OCc2ccc(Cl)cc2)cc1`, 26.7 µM. To `CC[C@@H](C)[C@H](CNC)NC[C@@H](Cc1cccc2ccccc12)NCCc1cccc(C(F)(F)F)c1` belongs 18.8 µM. To `O=c1[nH]c2ccccc2n2c(=S)[nH]nc12` belongs 147 µM.

In the case of `Cc1nn(-c2cc(N3CCNCC3)ccc2[N+](=O)[O-])c(=O)c2ccccc12`, the half-maximal inhibitory concentration (IC50) is 141 µM. As to `O=C(C[n+]1cccc(CNC(=O)c2ccc(OC(F)F)cc2)c1)Nc1ccc(SC(F)F)cc1`, the half-inhibitory concentration (IC50) was 78.6 µM. To `CC[C@@H](C)[C@H](CN[C@H](CNC)C(C)C)NC[C@@H](C)c1ccc(CC(C)C)cc1` belongs 26.2 µM; to `c1ccc(CN2CCN(c3ncnc4c3[nH]c3ccccc34)CC2)cc1`, 73.8 µM.

Take `O=C(Cn1nc(CNc2ccc(Cl)cc2)[n+]2c1CCCCC2)c1ccc(Br)cc1`: the half-inhibitory concentration (IC50) was 57.2 µM. Take `Oc1ccc(C[C@@H]2CNCCN2CCCCC2CCCCC2)cc1`: the IC50 is 37.5 µM. For `CCN(CC)CCn1c(=N)n(CC(O)COc2cccc(C)c2)c2ccccc21` (stereo not drawn) the value was 23.3 µM. For `C#CCOCCOCCOCCNc1nc(N2CCN(C(=O)[C@H](Cc3ccc(O)cc3)n3cc([C@@H](N)CC(C)C)nn3)CC2)nc(N2CCN(C(=O)[C@H](Cc3cc4ccccc4[nH]3)n3cc([C@@H](N)CC(C)C)nn3)CC2)n1` the value was 41.8 µM.

Take `Cc1nc2c(=O)n(C)c(=O)nc-2n(C)n1`: the IC50 is 2.32 µM. For `Cc1ccc2sc(N(CCCN(C)C)C(=O)c3ccc(Br)s3)nc2c1C` the value was 36.6 µM; for `CCN1CCN(C(=O)c2cc3ccc(OC)cc3[nH]2)CC1`, 34.1 µM. For `COc1ccc(Nc2c3ccccc3nc3ccccc23)cc1` the value was 23.7 µM; for `COc1ccccc1N1CCN(Cc2ccc(O)c3ncccc23)CC1`, 32.5 µM; for `Cc1ccc(C[n+]2c(-c3ccc(C)cc3)cc(-c3ccc(C)cc3)cc2-c2ccc(C)cc2)cc1`, 15.6 µM.

For the compound `Cc1cccc(C(=O)NNC(=S)NC(=O)c2cccs2)c1`, the concentration for half-maximal inhibition (IC50) was 66.3 µM. To `CN1CCN(C(c2cccc(Cl)c2)c2ccccc2Cl)CC1` (stereo not drawn) belongs 68.2 µM. For `c1ccc(N2CCN(c3nc4ccccc4[nH]3)CC2)nc1` the value was 138 µM.

On to `Cc1cc(/C=C\c2ccc3cc(N(C)C)ccc3[n+]2C)c(C)n1-c1ccccc1`, for which the half-inhibitory concentration (IC50) was 21.7 µM. To `Clc1ccc(C(c2ccc(Cl)cc2)n2cc[n+](CC(OCc3ccc(Cl)cc3Cl)c3ccc(Cl)cc3Cl)c2)cc1` (stereo not drawn) belongs 9.7 µM; to `N#C/C(=N\Nc1ccc([N+](=O)[O-])cc1)C(N)=S`, 108 µM.

For the compound `COC(=O)C1=C(C)N(Cc2ccccc2)C(=NCc2cccc(C(F)(F)F)c2)N[C@H]1c1cccc(F)c1`, the IC50 is 35.3 µM. Take `Oc1c(Br)cc(Br)cc1C=Nc1cccc2ncccc12`: the 50% inhibitory concentration (IC50) is 21.8 µM. To `CC1(C)N=C(N)NC(Nc2ccc(Br)cc2)=N1` belongs 109 µM; to `O=C(/C=C/c1ccccc1)c1cc(Br)ccc(=O)c1O`, 21.8 µM; to `Cc1ccc2nc(N(CCCN(C)C)C(=O)c3sc4ccccc4c3Cl)sc2c1`, 24.3 µM. For `C/C(=C\C(=O)OCCCCCCCCC(=O)O)C[C@@H]1OC[C@H](C[C@@H]2O[C@H]2[C@@H](C)[C@H](C)O)[C@@H](O)[C@H]1O` the value was 38.4 µM. For `c1ccc(CCN2CN(CCCN3CCOCC3)c3nc4ccccc4n3C2)cc1` the value was 128 µM. As to `O=C1CSC(=S)N1c1cccc(O)c1`, the 50% inhibitory concentration (IC50) was 59.9 µM. For `CCC(O)(CC)C(=O)N/N=C/c1cc(Br)cc(Br)c1O` the value was 70.2 µM; for `O=C(CCN1CCN(c2ccccc2)CC1)c1ccc(Br)cc1`, 70.1 µM; for `CCN(CC(O)COc1ccc(OCC(O)CN(CC)C2CCCCC2)cc1)C1CCCCC1` (stereo not drawn), 52.4 µM. For `c1ccc2c(c1)CSc1sccc1C2=C1CCNCC1`, the IC50 was 80.3 µM. To `O=c1cc(-c2ccc(O)cc2)oc2c(O)c(O)c(O)c(O)c12` belongs 35.6 µM; to `CCCCOc1ccc(C(=O)OC2CC(C)N(C)CC2C)cc1` (stereo not drawn), 26.7 µM; to `CCc1ccc(CNCc2ccc(OCC(O)CN(C)Cc3ccccc3)cc2)nc1` (stereo not drawn), 67.6 µM.

For `COc1c2ccccc2nc2ccccc12`, the IC50 is 40.4 µM. To `CCc1ccc(-c2nn(-c3ccccc3)cc2CSC(=N)N)cc1` belongs 19.3 µM; to `COc1cccc(/C=N\NC(=O)Cn2nnc3ccccc32)c1O`, 94.6 µM. To `O=C(O)/C(=C\C(=O)c1ccccc1)Nc1ccccc1` belongs 103 µM. Turning to `O=C(N/N=C/c1cc([N+](=O)[O-])ccc1O)C1CC1`, the IC50 is 20.2 µM. To `CCN1CCCC1CNC(=O)C1CCN(Cc2nc(-c3cccc(Br)c3)oc2C)CC1` (stereo not drawn) belongs 33.3 µM.

Regarding `Fc1ccc([C@@H]2CCNC[C@H]2COc2ccc3c(c2)OCO3)cc1`, the half-inhibitory concentration (IC50) is 19.2 µM. As for `N=c1n(CC(=O)c2ccc(Br)s2)c2ccccc2n1Cc1ccccc1`, the concentration for half-maximal inhibition (IC50) was 27.3 µM. For `CCCOc1ccc(S(=O)(=O)n2cc(F)c(=O)[nH]c2=O)cc1` the value was 139 µM; for `CN(C)CCCN(C(=O)CCc1ccccc1)c1nc2ccc(Br)cc2s1`, 32.8 µM. For `COC(=O)C1C(O)C(C)C(O)C(C)/C=C\C=C(/C)C(=O)Nc2c(C)c(OC(C)=O)c3c(c2O)C(=O)C(C)=C2OCOC(=C23)/C(C)=C/C(C)(O)C(O)C(C)C1O` (stereo not drawn) the value was 15.2 µM; for `O=C1NCCN1c1ncc([N+](=O)[O-])s1`, 28.2 µM; for `CC(=O)NC(=S)NNC(=O)c1ccc(Br)cc1`, 29.4 µM. Consider `Nc1ncncc1-c1ccc([N+](=O)[O-])cc1`, for which the IC50 was 43.9 µM.

For the compound `CN(C)CC/C=C1\c2ccccc2Sc2ccc(Cl)cc21`, the IC50 was 60 µM.

As for `CCCCCCCCCCCCCCCC[n+]1cccc(C(=O)N(CC)CC)c1`, the 50% inhibitory concentration (IC50) is 18.3 µM. For `CNC[C@@H](CC1CCCCC1)NC[C@H](CC(C)C)NCCc1cccc(C(F)(F)F)c1` the value was 18.8 µM; for `Fc1ccc(Nc2nnc(C(F)(F)F)s2)cc1Cl`, 37.8 µM. To `CC(C)(c1ccccc1)c1ccc(OCCCNCCO)cc1` belongs 29 µM; to `COc1cc(Br)cc(/C=N/c2ncn[nH]2)c1O`, 61.3 µM. On to `Cc1c(CN(C)C)c2c(n1Cc1ccccc1)C(=O)c1ccc(Br)cc1-2`, for which the IC50 is 47.2 µM.

Regarding `CC(C(=O)NC1C=CS(=O)(=O)C1)N1C(=O)/C(=C/c2ccc(Cl)cc2)SC1=S` (stereo not drawn), the IC50 was 30.3 µM. For `CCCCCSc1cc(OC)c(CCNC)cc1OC` the value was 52.2 µM; for `CC1CCc2c(N3CCC(O)CC3)c(F)cc3c(=O)c(C(=O)O)cn1c23` (stereo not drawn), 18.9 µM; for `CCCCCCCC(=O)N/N=C/c1ccc([N+](=O)[O-])o1`, 40.2 µM. For `CSc1nc2ccc(Cl)cc2[nH]1` the value was 73.6 µM.
